Data reported in patent publication US20250222063A1, “TOPICAL FORMULATION FOR USE IN THE TREATMENT OR PREVENTION OF DRY ITCHY SKIN” (MC2 THERAPEUTICS LTD, priority 2022, published 2025).
Non-standard residues stand in square brackets, D forms with d. Residues, ends and D or L forms follow the SMILES beside them. Sar = CNCC(=O)O

Experiments:
[1] = system: bovine serum albumin (BSA); assay: In vitro protein carbamylation assay (14C-potassium cyanate, scintillation counting); format: biochemical; conditions: 10 mM nucleophile, 75 μM BSA, 25 μM 14C-Potassium Cyanate, 37° C., 72 hours, n=3
Experimental: The tests were performed as described below. 200 μL of a 0.5% BSA solution, 200 μL of test solution and 100 μL of a 5 μCi/mL 14 C-Potassium Cyanate solution was mixed in an Eppendorf tube (corresponding to a final concentration of 75 μM BSA, 25 μM 14 C-Potassium Cyanate, and 10 mM nucleophile). Samples run in triplicates (n=3). The Eppendorf tubes were incubated at 37° C. for 72 hours.
After incubation a volume of 100 μL of each sample was transferred to a new Eppendorf tube containing 100 μL of a 10% trichloroacetic acid (TCA) and kept at 4° C. overnight (for precipitation of BSA). Subsequently, the precipitated BSA was separated from the buffer by centrifugation (10000 rpm, 30 seconds). The supernatant was removed and the BSA pellet 10 was resuspended in 200 μL of a 10% solution of cold TCA (4° C.). The pellet was recovered by centrifugation (10000 rpm, 30 seconds) and supernatant was discarded. The BSA pellet was resuspended in 100 μL purified water (MilliQ) and transferred to a scintillation vial. The Eppendorf tube (previously containing the BSA pellet) was rinsed with an additional 100 μL purified water which al was transferred to the relevant scintillation vial.

[2] = Aqueous stability in HBSS buffer at 40° C. (HPLC-UV); format: physicochemical; conditions: 3% wt/wt or 0.4% wt/wt in HBSS buffer, glass vials, 40° C., HPLC-UV, in % (unit assumed)
Experimental: An important aspect of formulating a stable topical product. Data in Table 4 below gives 1 month and 3 month stability data at 40° C. Compounds were dissolved at 3% wt/wt or 0.4% wt/wt (if 3% was not possible) in HBSS buffer and stored in glass vials at temperature. Samples were subsequently analyzed by HPLC-UV.

[3] = Skin homogenate study (degradation half-life, LC-MS/MS); format: in vitro ADME, human; conditions: pooled human skin homogenate, 37° C., compound working solution 40 μg/mL mixed with equal volume of homogenate
Experimental: To identify which of the dipeptides was readily subject to degradation by proteases and other cell processes in the skin, a number of compounds where tested in a skin homogenate study as described below and the results are listed in table 3.
Dermatomed human skin from multiple skin donors was pooled, homogenized, and adjusted to a tissue concentration of 100 mg tissue per mL of homogenate. The homogenate was used immediately following preparation without any additional freeze/thaw cycles. Working solutions of each compound were prepared in Dulbecco's phosphate-buffered saline (DPBS) at 40 μg/mL. All solutions were pre-heated to 37° C. Equal volumes of skin homogenate and compound working solution were combined, mixed, held at 37° C., and sampled at 0, 15, 30, 60, 120, and 240 minutes. Samples were quenched with acidic acetonitrile, centrifuged, and prepared for LC-MS/MS analysis. Peak areas of each compound at each time-point were determined by LC-MS/MS.
The individual half-life of each dipeptide was determined.
The nature of the experiment should be considered indicative of the relative stability of each of the compounds rather than an absolute correlation to what would happen in vivo. The process of homogenizing the skin is likely to greatly accelerate the degradation. However, it is clear that there is substantial variation in the relative rates for each dipeptide. (See Table 3)

SMILES	1 month aqueous stability at 40° C. [2]	3 month aqueous stability at 40° C. [2]	Half life in skin homogenate [3]	Degree of carbamylation (% relative to HBSS control) [1]
NCCC(=O)N[C@@H](Cc1c[nH]cn1)C(=O)O [Ala(b)-His (L-Carnosine)]	98.4	99.7	–	72.63 % relative to HBSS control
C[C@H](N)C(=O)N[C@@H](C)C(=O)O [Ala-Ala] (H-Ala-Ala-OH)	–	–	0.383 h	–
C[C@H](N)C(=O)N[C@H](C)C(=O)O [Ala-D-Ala] (H-Ala-[dA]-OH)	–	–	>8 h	–
C[C@@H](N)C(=O)NCC(=O)O [Ala-Gly (D)] (H-[dA]-Gly-OH)	–	–	>8 h	–
C[C@H](N)C(=O)NCC(=O)O [Ala-Gly] (H-Ala-Gly-OH)	–	–	1 h	–
C[C@H](N)C(=O)O [Alanine, reference compound]	–	–	–	93.54 % relative to HBSS control
Cl.N=C(N)NCCC[C@H](N)C(=O)O [Arg*HCl, reference compound]	–	–	–	66.1 % relative to HBSS control
N=C(N)NCCC[C@H](N)C(=O)O [Arg, Arginine, reference compound]	–	–	–	52.4 % relative to HBSS control
N[C@@H](CC(=O)O)C(=O)N[C@@H](Cc1ccccc1)C(=O)O [Asp-Phe] (H-Asp-Phe-OH)	–	–	1.28 h	–
COC(=O)[C@H](Cc1ccccc1)NC(=O)[C@@H](N)CC(=O)O [Aspartame] (H-Asp-Phe-OMe)	–	–	–	30.4 % relative to HBSS control
CC(C)C[C@H](NC(=O)[C@@H](O)[C@H](N)Cc1ccccc1)C(=O)O [Bestatin, reference compound]	–	–	–	53.4 % relative to HBSS control
NC(=O)NCCC[C@H](N)C(=O)O [Citrulline, reference compound]	–	–	–	81.7 % relative to HBSS control
CN(CC(=O)O)C(=N)N [Creatine, reference compound]	–	–	–	103.92 % relative to HBSS control
NC(=O)CC[C@H](N)C(=O)O [Glutamine, reference compound]	–	–	–	74.39 % relative to HBSS control
C[C@H](NC(=O)CN)C(=O)O [Gly-Ala] (H-Gly-Ala-OH)	–	–	–	35.27 % relative to HBSS control
NCC(=O)N[C@@H](CC(=O)O)C(=O)O [Gly-Asp] (H-Gly-Asp-OH)	–	–	>8 h	–
NCC(=O)N[C@@H](CCC(N)=O)C(=O)O [Gly-Gln] (H-Gly-Gln-OH)	–	–	–	32.99 % relative to HBSS control
NCC(=O)N[C@@H](CCC(=O)O)C(=O)O [Gly-Glu] (H-Gly-Glu-OH)	99.0	99.7	–	–
CC(C)C[C@H](NC(=O)[C@@H](N)Cc1cnc[nH]1)C(=O)O [His-leu] (H-His-Leu-OH)	–	–	–	27.18 % relative to HBSS control
N[C@@H](Cc1c[nH]cn1)C(=O)O [Histidine, reference compound]	–	–	–	61.1 % relative to HBSS control
NCCCC[C@H](N)C(=O)O [Lysine, reference compound]	–	–	–	71.63 % relative to HBSS control
NCCNCC(=O)O [N-β-aminoethyl-Gly]	–	–	–	29.7 % relative to HBSS control
NCCS(=O)(=O)O [Taurine, reference compound]	–	–	–	58.17 % relative to HBSS control
NC(N)=NCCC[C@H](NC(=O)[C@@H](N)Cc1ccc(O)cc1)C(=O)O [Tyr-Arg]	–	–	–	25.96 % relative to HBSS control

Now from value to compound, other results behind:

1 month aqueous stability at 40° C. [2]	3 month aqueous stability at 40° C. [2]	Half life in skin homogenate [3]	SMILES	Degree of carbamylation (% relative to HBSS control) [1]
–	–	>8 h	NCC(=O)NCC(=O)O [Gly-Gly] (H-Gly-Gly-OH)	–
99.8	79.3	>8 h	NCC(=O)N[C@@H](Cc1cnc[nH]1)C(=O)O [Gly-His] (H-Gly-His-OH)	22.6 % relative to HBSS control
–	–	>8 h	NCC(=O)N1CCC[C@H]1C(=O)O [Gly-Pro] (H-Gly-Pro-OH)	–
–	–	>8 h	CN(CC(=O)O)C(=O)CN [Gly-Sar] (H-Gly-[Sar]-OH)	–
97.8	70.7	–	NCC(=O)NC(CO)C(=O)O (stereo not shown) [Gly-Ser]	33.1 % relative to HBSS control
–	–	0.8 h	CC(C)[C@H](NC(=O)CN)C(=O)O [Gly-Val] (H-Gly-Val-OH)	–
99.1	102.0	2.25 h	CC[C@H](C)[C@H](N)C(=O)N1CCC[C@H]1C(=O)O [Ile-Pro] (H-Ile-Pro-OH)	41.4 % relative to HBSS control
–	–	0.867 h	NCCCC[C@H](N)C(=O)N1CCC[C@H]1C(=O)O [Lys-Pro] (H-Lys-Pro-OH)	28.6 % relative to HBSS control
–	–	1.93 h	O=C(O)[C@@H]1CCCN1C(=O)[C@@H]1CCCN1 [Pro-Pro] (H-Pro-Pro-OH)	–
78.1	49.0	4.73 h	O=C(O)[C@H](CO)NC(=O)[C@@H]1CCCN1 [Pro-Ser] (H-Pro-Ser-OH)	41.9 % relative to HBSS control
95.5	88.5	0.683 h	N[C@@H](CO)C(=O)N1CCC[C@H]1C(=O)O [Ser-Pro] (H-Ser-Pro-OH)	26.4 % relative to HBSS control
–	–	0.75 h	NC(=O)CC(NC(=O)C(N)Cc1c[nH]c2ccccc12)C(=O)O (stereo not drawn) [Trp-Asn] (H-Trp-Asn-OH; configuration not given here)	–
–	–	1.07 h	N[C@@H](Cc1c[nH]c2ccccc12)C(=O)NCC(=O)O [Trp-Gly] (H-Trp-Gly-OH)	–
–	–	0.567 h	NC(Cc1c[nH]c2ccccc12)C(=O)N1CCCC1C(=O)O (stereo not shown) [Trp-Pro]	–
100.4	94.0	0.833 h	C[C@H](NC(=O)[C@@H](N)Cc1ccc(O)cc1)C(=O)O [Tyr-Ala]	26.1 % relative to HBSS control
–	–	0.483 h	N[C@@H](Cc1ccc(O)cc1)C(=O)N1CCC[C@H]1C(=O)O [Tyr-Pro] (H-Tyr-Pro-OH)	32.8 % relative to HBSS control
90.5	80.9	0.65 h	CC(C)[C@H](N)C(=O)N1CCC[C@H]1C(=O)O [Val-Pro] (H-Val-Pro-OH)	22.1 % relative to HBSS control
100.7	98.2	<0.125 h	CC(C)[C@H](N)C(=O)N[C@@H](Cc1ccc(O)cc1)C(=O)O [Val-Tyr] (H-Val-Tyr-OH)	28.9 % relative to HBSS control
